Measured values: patent US20170016037A1, “Method for Increasing the Solubility of Methionine by Mineral Addition and Acid Treatment” (CJ CHEILJEDANG CORPORATION, priority 2009, published 2017)
Like-named read-outs stand apart in the source and are kept apart here.

Columns and labels:
[1] = cited from earlier work; for solubility in the aqueous solution: generally
[2] = pH 2; cited from earlier work
[3] = cited from earlier work

result of the same experiment using DL-methionine (as Example 1 (manganese sulfide, 0.1 M sulfuric acid; 50% solution), DL-methionine 99% Sigma) | result of the same experiment using DL-methionine (as Example 2 (zinc sulfide, 0.1 M sulfuric acid; 50% solution)) | result of the same experiment using DL-methionine (as Example 3 (3.75% minerals, 0.1 M sulfuric acid; 50% solution)) | result of the same experiment using DL-methionine (as Example 4 (1.88% minerals, 0.1 M sulfuric acid; 50% solution)) | methionine solubility maximized by combination of mineral addition and acid addition (summary statement, mineral amount less than 15% of the method used before) [%] | methionine solution concentration (L-methionine crystal powder purified to 99% or more from fermentation/enzymatic conversion solution, same manner as Examples 1 to 4) [%] | solubility of L-methionine (L-methionine-containing solution produced by fermentation and enzymatic conversion reaction) | SMILES | solubility in the aqueous solution [1] | solubility of DL-methionine with acid treatment [2] | solubility of DL-methionine with use of mineral ([3]; U.S. Pat. No. 5,430,164, mineral) | solubility of methionine in water ([1]; room temperature, generally known) [mg/mL] | maximum methionine solution concentration ([3]; U.S. Pat. No. 5,430,164, total 3.5 to 3.9 M minerals (3.35 M zinc sulfate, 0.167 to 0.569 M ferric chloride), 1 L) [%]
identical results | identical results | identical results | identical results | – | – | – | CSCCC(N)C(=O)O (racemic) [DL-methionine] | about 5 % (w/v) | 18 % (w/v) | up to 12 % (w/v) | – | –
– | – | – | – | 50 | – | – | CSCC[C@H](N)C(=O)O (racemic) [methionine] | – | – | – | 50 to 55 | ≤ 50
– | – | – | – | – | ≥ 50 | up to 35% | CSCC[C@H](N)C(=O)O [L-methionine] | about 5 % (w/v) | – | – | – | –
